The record followed here is patent publication US9422285B2, “Substituted pyrazolo[1,5-A]-pyridine-3-carboxamides and use thereof” (Bayer Pharma Aktiengesellschaft, priority 2014, dated 2016).

For the test, the target named is T1, recombinant guanylate cyclase reporter cell line (Rattus norvegicus, UniProt P19686+P20595).
T1 construct: expressed in transfected cells
T1 sequence (P19686 1-690): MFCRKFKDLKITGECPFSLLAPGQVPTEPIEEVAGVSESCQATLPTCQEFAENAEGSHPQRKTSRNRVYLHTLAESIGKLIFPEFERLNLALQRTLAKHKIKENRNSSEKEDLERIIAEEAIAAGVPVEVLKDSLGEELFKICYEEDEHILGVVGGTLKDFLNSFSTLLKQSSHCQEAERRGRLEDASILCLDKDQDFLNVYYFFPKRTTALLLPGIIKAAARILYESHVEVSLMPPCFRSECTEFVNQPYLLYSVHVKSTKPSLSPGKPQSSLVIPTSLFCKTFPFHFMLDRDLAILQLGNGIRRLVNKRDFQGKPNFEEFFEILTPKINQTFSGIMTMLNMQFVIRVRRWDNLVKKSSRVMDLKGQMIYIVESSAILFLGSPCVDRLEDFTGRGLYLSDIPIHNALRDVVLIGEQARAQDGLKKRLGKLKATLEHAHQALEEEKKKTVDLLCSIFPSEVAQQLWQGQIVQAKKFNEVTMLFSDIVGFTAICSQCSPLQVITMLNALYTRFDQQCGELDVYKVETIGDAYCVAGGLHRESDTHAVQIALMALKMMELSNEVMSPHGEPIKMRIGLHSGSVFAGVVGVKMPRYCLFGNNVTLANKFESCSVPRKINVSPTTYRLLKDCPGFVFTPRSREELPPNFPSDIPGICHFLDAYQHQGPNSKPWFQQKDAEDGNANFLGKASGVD
T1 sequence (P20595 1-619): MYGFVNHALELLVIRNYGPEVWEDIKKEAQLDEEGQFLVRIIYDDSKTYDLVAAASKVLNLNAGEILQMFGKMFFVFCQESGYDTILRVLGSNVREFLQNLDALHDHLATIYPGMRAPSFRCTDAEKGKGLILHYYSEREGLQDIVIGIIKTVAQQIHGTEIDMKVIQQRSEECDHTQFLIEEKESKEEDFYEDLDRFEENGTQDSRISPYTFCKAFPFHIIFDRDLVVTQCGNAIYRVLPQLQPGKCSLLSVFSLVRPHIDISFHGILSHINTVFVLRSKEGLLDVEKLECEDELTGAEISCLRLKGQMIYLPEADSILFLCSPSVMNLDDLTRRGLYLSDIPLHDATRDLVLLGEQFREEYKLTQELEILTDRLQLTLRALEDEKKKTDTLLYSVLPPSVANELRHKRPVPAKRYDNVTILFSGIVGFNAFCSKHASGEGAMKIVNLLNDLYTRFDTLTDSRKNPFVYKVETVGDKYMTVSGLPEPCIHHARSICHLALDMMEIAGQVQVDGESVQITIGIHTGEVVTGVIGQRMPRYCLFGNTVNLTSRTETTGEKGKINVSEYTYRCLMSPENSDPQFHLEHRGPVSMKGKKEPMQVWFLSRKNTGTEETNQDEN
Kind of test: Effect on a recombinant guanylate cyclase reporter cell line (B-2). The class given is cell-based. The following applies: in some cases mean values for individual determinations. The procedure: B-2. Effect on a Recombinant Guanylate Cyclase Reporter Cell Line
The cellular effect of the inventive compounds is determined using a recombinant guanylate cyclase reporter cell line, as described in F. Wunder et al., Anal. Biochem. 339, 104-112 (2005).
Representative MEC values (MEC=minimum effective concentration) for the inventive compounds are shown in the table below (in some cases as mean values for individual determinations): […]

Where a name gives a salt, the structure may show the parent alone.

With `Cc1cc(OCc2c(F)cccc2F)n2nc(C)c(C(=O)NCC(N)c3cccc(C(F)(F)F)c3)c2c1` (racemic) [Example 105, rac-N-{2-Amino-2-[3-(trifluoromethyl)phenyl]ethyl}-7-[(2,6-difluorobenzyl)oxy]-2,5-dimethylpyrazolo[1,5-a]pyridine-3-carboxamide], the “MEC (minimum effective concentration)” value came out at 3.0 µM.
In the case of `Cc1cc(OCc2c(F)cccc2F)n2nc(C)c(C(=O)NCCCS(=O)(=O)NC3CC3)c2c1` [Example 151, N-[3-(Cyclopropylsulphamoyl)propyl]-7-[(2,6-difluorobenzyl)oxy]-2,5-dimethylpyrazolo[1,5-a]pyridine-3-carboxamide], the “MEC (minimum effective concentration)” value stood at 3.0 µM.
Consider `Cc1cc(OCc2c(F)cccc2F)n2nc(C)c(C(=O)NC(CN)c3ccc4c(c3)OCO4)c2c1` (racemic) [Example 120, rac-N-[2-Amino-1-(1,3-benzodioxol-5-yl)ethyl]-7-[(2,6-difluorobenzyl)oxy]-2,5-dimethylpyrazolo[1,5-a]pyridine-3-carboxamide], for which the “MEC (minimum effective concentration)” value came to 1.0 µM.
Take `Cc1cc(OCc2c(F)cccc2F)n2nc(C)c(C(=O)N[C@@H](CO)c3ccc(C)o3)c2c1` [Example 177, 7-[(2,6-Difluorobenzyl)oxy]-N-[(1S)-2-hydroxy-1-(5-methy1-2-furyl)ethyl]-2,5-dimethylpyrazolo[1,5-a]pyridine-3-carboxamide]: the “MEC (minimum effective concentration)” value worked out at 1.0 µM.
As to `Cc1cc(OCc2c(F)ccc(F)c2F)n2nc(C)c(C(=O)NCc3ncc[nH]3)c2c1` [Example 18, N-(1H-Imidazol-2-ylmethyl)-2,5-dimethyl-7-[(2,3,6-trifluorobenzyl)oxy]pyrazolo[1,5-a]pyridine-3-carboxamide], the “MEC (minimum effective concentration)” value amounted to 3.0 µM.
For the compound `CCCC(C)(N)CNC(=O)c1c(C)nn2c(OCc3c(F)cccc3F)cc(C3CC3)cc12` (racemic) [Example 167, rac-N-(2-Amino-2-methylpentyl)-5-cyclopropyl-7-[(2,6-difluorobenzyl)oxy]-2-methylpyrazolo[1,5-a]pyridine-3-carboxamide], the “MEC (minimum effective concentration)” value was determined as 3.0 µM.
As for `COc1cccc(C(CN)NC(=O)c2c(C)nn3c(OCc4c(F)cccc4F)cc(C)cc23)c1` (racemic) [Example 123, rac-N-[2-Amino-1-(3-methoxyphenyl)ethyl]-7-[(2,6-difluorobenzyl)oxy]-2,5-dimethylpyrazolo[1,5-a]pyridine-3-carboxamide], the “MEC (minimum effective concentration)” value came out at 1.0 µM.
As to `Cc1cc(OCc2c(F)ccc(F)c2F)n2nc(C)c(C(=O)NC3c4ccccc4CC3O)c2c1` (centres unmarked) [Example 6], the “MEC (minimum effective concentration)” value was 1.0 µM.
On to `C=Cc1cccc(C(N)CNC(=O)c2c(C)nn3c(OCc4c(F)cccc4F)cc(C)cc23)c1` (racemic) [Example 141, rac-N-[2-Amino-2-(3-vinylphenyl)ethyl]-7-[(2,6-difluorobenzyl)oxy]-2,5-dimethylpyrazolo[1,5-a]pyridine-3-carboxamide], for which the “MEC (minimum effective concentration)” value came to 3.0 µM.
The value for `Cc1cc(OCc2c(F)cccc2F)n2nc(C)c(C(=O)NCC(C)(N)CCF)c2c1` (single isomer, unassigned) [Example 49, ent-N-(2-Amino-4-fluoro-2-methylbutyl)-7-[(2,6-difluorobenzyl)oxy]-2,5-dimethylpyrazolo[1,5-a]pyridine-3-carboxamide] was 0.3 µM; that for `Cc1cc(OCc2c(F)ccc(F)c2F)n2nc(C)c(C(=O)NC(C)c3nc(C(F)(F)F)no3)c2c1` (racemic) [Example 19, rac-2,5-Dimethyl-7-[(2,3,6-trifluorobenzyl)oxy]-N-{1-[3-(trifluoromethyl)-1,2,4-oxadiazol-5-yl]ethyl}pyrazolo[1,5-a]pyridine-3-carboxamide] was 0.3 µM.
Turning to `Cc1ccc2c(c1)OC(C)(C)CC2NC(=O)c1c(C)nn2c(OCc3c(F)cccc3F)cc(C)cc12` (racemic) [Example 137, rac-7-[(2,6-Difluorobenzyl)oxy]-2,5-dimethyl-N-(2,2,7-trimethyl-3,4-dihydro-2H-chromen-4-yl)pyrazolo[1,5-a]pyridine-3-carboxamide], the “MEC (minimum effective concentration)” value was 1.0 µM.
On to `Cc1cc(OCc2c(F)cccc2F)n2nc(C)c(C(=O)N[C@H]3c4ccccc4C[C@H]3CO)c2c1` (relative stereo) [Example 143, rel-7-[(2,6-Difluorobenzyl)oxy]-N-[(1R,2R)-2-(hydroxymethyl)-2,3-dihydro-1H-inden-1-yl]-2,5-dimethylpyrazolo[1,5-a]pyridine-3-carboxamide], for which the “MEC (minimum effective concentration)” value worked out at 0.3 µM.
As to `CCCC(C)(N)CNC(=O)c1c(C(F)(F)F)nn2c(OCc3c(F)cccc3F)cc(C)cc12` (single isomer, unassigned) [Example 52, ent-N-(2-Amino-2-methylpentyl)-7-[(2,6-difluorobenzyl)oxy]-5-methyl-2-(trifluoromethyl)pyrazolol[1,5-a]pyridine-3-carboxamide trifluoroacetate], the “MEC (minimum effective concentration)” value was determined as 0.3 µM.
`Cc1cc(OCc2c(F)cccc2F)n2nc(C)c(C(=O)NC(C#N)c3ccc(Cl)cc3)c2c1` (racemic) [Example 134, rac-N-[(4-Chlorophenyl)(cyano)methyl]-7-[(2,6-difluorobenzyl)oxy]-2,5-dimethylpyrazolo[1,5-a]pyridine-3-carboxamide]: the “MEC (minimum effective concentration)” value came to 0.3 µM.
Consider `Cc1cc(OCc2c(F)cccc2F)n2nc(C)c(C(=O)NCC(N)c3cnn(C)c3)c2c1` (racemic) [Example 136, rac-N-[2-Amino-2-(1-methyl-1H-pyrazol-4-yl)ethyl]-7-[(2,6-difluorobenzyl)oxy]-2,5-dimethylpyrazolo[1,5-a]pyridine-3-carboxamide], for which the “MEC (minimum effective concentration)” value worked out at 10 µM.
Regarding `Cc1cc(OCc2c(F)cccc2F)n2nc(C)c(C(=O)NCC(C)(N)CF)c2c1` (single isomer, unassigned) [Example 41, ent-N-(2-Amino-3-fluoro-2-methylpropyl)-7-[(2,6-difluorobenzyl)oxy]-2,5-dimethylpyrazolo[1,5-a]pyridine-3-carboxamide], the “MEC (minimum effective concentration)” value amounted to 0.3 µM.
The value for `Cc1cc(OCc2c(F)cccc2F)n2nc(C)c(C(=O)NCC(N)c3csc4ccccc34)c2c1` (racemic) [Example 112, rac-N-[2-Amino-2-(1-benzothiophen-3-yl)ethyl]-7-[(2,6-difluorobenzyl)oxy]-2,5-dimethylpyrazolo[1,5-a]pyridine-3-carboxamide] was 10 µM; that for `Cc1cc(OCc2c(F)ccc(F)c2F)n2nc(C)c(C(=O)NC(CO)c3ccc(F)cc3)c2c1` (racemic) [Example 30, rac-N-[1-(4-Fluorophenyl)-2-hydroxyethyl]-2,5-dimethyl-7-[(2,3,6-trifluorobenzyl)oxy]pyrazolo[1,5-a]pyridine-3-carboxamide] was 0.1 µM; that for `Cc1cc(OCc2c(F)ccc(F)c2F)n2nc(C)c(C(=O)NC3CC3c3ccccc3)c2c1` (racemic) [Example 10, rac-2,5-Dimethyl-N-(2-phenylcyclopropyl)-7-[(2,3,6-trifluorobenzyl)oxy]pyrazolo[1,5-a]pyridine-3-carboxamide] was 1.0 µM.
